Laboratory results taken from article PMC10818749, “Toxicity Studies of Cardiac-Targeting Peptide Reveal a Robust Safety Profile” (Pharmaceutics, 2024).
“Also recorded” adds a separate entry of the source. Ends that are not written are not given here.

Columns and labels:
HEK-Kv4.3/KChIP2 = HEK-Kv4.3/KChIP2 (Homo sapiens, UniProt Q9NS61+Q9UK17); details: CTP 0.1 to 30 µM; HEK cells; step to 40mV; 0.1% Pluronic F-68
KvLQT1/minK = KvLQT1/minK (Homo sapiens, UniProt P15382+P51787); experiment: KvLQT1/minK ion channel assay; assay type: cell-based; details: SAFETYscan ion channel assay, up to 30 µM
Chain of KvLQT1/minK (P51787 whole entry): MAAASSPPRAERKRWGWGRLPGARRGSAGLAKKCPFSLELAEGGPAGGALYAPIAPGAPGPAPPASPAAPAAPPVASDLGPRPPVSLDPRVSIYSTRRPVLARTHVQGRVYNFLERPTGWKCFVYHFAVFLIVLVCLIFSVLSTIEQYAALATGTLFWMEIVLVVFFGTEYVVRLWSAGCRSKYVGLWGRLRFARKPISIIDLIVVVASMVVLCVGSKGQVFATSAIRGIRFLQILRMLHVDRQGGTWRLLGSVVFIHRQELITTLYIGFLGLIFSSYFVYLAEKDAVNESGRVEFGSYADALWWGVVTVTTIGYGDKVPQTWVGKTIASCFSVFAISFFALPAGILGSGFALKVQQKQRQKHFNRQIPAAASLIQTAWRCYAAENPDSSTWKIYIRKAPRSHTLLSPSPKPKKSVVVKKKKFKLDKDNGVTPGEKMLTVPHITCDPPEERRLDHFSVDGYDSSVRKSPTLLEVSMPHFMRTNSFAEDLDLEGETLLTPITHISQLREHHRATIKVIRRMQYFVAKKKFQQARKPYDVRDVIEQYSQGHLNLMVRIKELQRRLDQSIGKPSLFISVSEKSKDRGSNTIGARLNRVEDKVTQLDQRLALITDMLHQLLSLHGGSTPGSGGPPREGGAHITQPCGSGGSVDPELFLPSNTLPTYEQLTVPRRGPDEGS
Protocol: (§1) Ion Channel Assays: Cell lines were grown, plated, and loaded with 1× loading buffer containing 1× dye and 2.5 mM freshly prepared probenecid. Assays were performed, and activity was measured using a FLIPR Tetra. Percent of activation and percent of inhibition were calculated to determine agonist and antagonist activity, respectively. […]
The FLIPR Potassium Assay Kit from Molecular Devices is used. It exploits the permeability of thallium ions (Tl+) through both voltage-and ligand-gated potassium (K+) channels. A novel, highly-sensiti ve
Tl+ indicator dye is utilized which produces a bright fluorescent signal upon the binding to Tl+ conducted through potassium chan-nels. […]
KINOMEscan® Assay fluorescence for improved signal/noise ratio.
(§2) The KINOMEscan screening platform employs a novel and propri- Membrane Potential Assay etary active site-directed competition binding assay to quantitatively The FLIPR® Membrane Potential Assay Kit is used which utilizes a pro-measure interactions between test compounds and the kinases. prietary fluorescent indicator dye in combination with a quencher to This robust and reliable assay technology affords investigators the reflect real-time membrane potential changes associated with ion ability to extensively annotate compounds with accurate, precise channel activation and ion transporter proteins. […]

CD1-wildtype mice = experiment: Mouse toxicity studies (weight, blood count, serum chemistries); assay type: in vivo; details: for alkaline phosphatase level, individual mouse: female
Protocol: Mouse Toxicity Studies: Sixty CD1-wildtype mice (1:1 male to female ratio) were obtained from Charles River and divided into 6 groups of 10, 5 females and 5 males each. Ten control mice were injected with 1X PBS. Treated mice were injected intravenously with a single dose of CTP 150 μg/Kg. Groups of 10 treated mice (5 male, 5 female) were euthanized on day 0 (immediately after injection), 1, 2, 7, and 14 post-injection using inhalational CO2. After euthanasia, the chest cavity was opened, and blood drawn via cardiac puncture for complete blood count and serum chemistries. Following the blood draw, the right atrium was nicked and the whole animal perfusion fixed using 3 mL of formalin injected into the left ventricular apex. The control group was euthanized on day 2. A complete blood count, metabolic profile, and thyroid studies were performed.

CHO-KCNQ1/minK = CHO-KCNQ1/minK (Homo sapiens, UniProt P15382+P51787); details: CTP 0.1 to 30 µM; CHO cells; step to +60mV; 0.1% Pluronic F-68
NAV1.5 = NAV1.5 (Homo sapiens, UniProt Q14524); experiment: in vitro; assay type: cell-based; details: up to 30 µM
Chain of NAV1.5 (Q14524 whole entry): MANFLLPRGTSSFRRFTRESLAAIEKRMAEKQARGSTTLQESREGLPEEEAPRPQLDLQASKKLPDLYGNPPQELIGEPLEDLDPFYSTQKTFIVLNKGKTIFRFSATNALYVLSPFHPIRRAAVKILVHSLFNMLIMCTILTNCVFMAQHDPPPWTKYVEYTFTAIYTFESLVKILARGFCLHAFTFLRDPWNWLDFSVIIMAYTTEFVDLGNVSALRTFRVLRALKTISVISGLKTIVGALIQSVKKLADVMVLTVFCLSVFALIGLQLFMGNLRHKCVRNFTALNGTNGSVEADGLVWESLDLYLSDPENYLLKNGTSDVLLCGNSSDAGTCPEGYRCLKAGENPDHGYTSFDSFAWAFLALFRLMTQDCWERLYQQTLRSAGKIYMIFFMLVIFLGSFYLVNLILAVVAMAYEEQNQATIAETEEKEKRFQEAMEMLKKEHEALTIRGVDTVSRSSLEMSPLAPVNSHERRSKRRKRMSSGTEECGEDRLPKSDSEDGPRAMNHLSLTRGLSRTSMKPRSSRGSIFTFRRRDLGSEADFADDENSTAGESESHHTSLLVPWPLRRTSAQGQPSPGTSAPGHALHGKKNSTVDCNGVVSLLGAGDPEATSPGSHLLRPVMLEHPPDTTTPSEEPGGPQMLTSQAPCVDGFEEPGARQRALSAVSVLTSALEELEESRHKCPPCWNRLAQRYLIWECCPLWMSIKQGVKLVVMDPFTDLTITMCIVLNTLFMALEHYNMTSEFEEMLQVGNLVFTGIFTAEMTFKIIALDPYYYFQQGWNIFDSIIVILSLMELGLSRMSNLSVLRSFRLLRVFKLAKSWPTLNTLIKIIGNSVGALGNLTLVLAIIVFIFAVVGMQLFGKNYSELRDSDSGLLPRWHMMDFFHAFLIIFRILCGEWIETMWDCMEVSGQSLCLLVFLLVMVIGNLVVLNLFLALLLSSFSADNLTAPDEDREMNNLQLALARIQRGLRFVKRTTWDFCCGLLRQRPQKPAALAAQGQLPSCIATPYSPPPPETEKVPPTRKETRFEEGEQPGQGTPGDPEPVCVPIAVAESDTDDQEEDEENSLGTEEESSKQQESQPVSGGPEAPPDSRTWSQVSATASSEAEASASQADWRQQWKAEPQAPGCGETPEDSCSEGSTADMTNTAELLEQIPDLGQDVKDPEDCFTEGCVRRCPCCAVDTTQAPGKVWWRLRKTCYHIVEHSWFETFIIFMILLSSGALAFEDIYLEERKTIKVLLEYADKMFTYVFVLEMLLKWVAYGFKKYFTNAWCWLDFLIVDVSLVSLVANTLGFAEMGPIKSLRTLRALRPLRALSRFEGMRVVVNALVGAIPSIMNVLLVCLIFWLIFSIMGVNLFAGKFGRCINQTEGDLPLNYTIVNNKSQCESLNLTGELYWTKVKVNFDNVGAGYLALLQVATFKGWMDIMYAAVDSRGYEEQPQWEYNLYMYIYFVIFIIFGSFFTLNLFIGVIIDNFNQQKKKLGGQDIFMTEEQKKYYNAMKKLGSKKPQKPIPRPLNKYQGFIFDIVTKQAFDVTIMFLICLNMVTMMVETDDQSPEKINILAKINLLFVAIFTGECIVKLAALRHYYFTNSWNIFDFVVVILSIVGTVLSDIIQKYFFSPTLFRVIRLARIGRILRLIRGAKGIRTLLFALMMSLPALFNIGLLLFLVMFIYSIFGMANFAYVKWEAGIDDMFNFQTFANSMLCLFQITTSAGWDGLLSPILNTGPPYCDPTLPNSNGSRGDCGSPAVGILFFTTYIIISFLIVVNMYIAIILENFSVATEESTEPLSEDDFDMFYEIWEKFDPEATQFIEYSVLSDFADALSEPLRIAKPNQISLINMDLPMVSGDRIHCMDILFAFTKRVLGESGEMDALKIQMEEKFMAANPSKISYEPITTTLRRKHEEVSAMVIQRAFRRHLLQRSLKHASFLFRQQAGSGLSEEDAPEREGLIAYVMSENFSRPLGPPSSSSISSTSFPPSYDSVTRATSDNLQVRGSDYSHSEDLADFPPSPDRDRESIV
Protocol: as §1, §2
Compounds that bind the kinase active site and directly (sterically) be monitored within a single experiment. […]
Upon stimulation, […]
a quantitative, precise and ultra-sensitive qPCR method that detects the receptor signals release of intracellular calcium, which results in the associated DNA label (D). In a similar manner, dissociation con- an increase of dye fluorescence. […]
1. Compound activity was measured on a FLIPR Tetra (MDS). […]

[1] = female mice, CTP 150 μg/Kg single i.v., Day 0, recovered by Day 1
[2] = female mice, CTP 150 μg/Kg single i.v., vs control
[3] = male mice, CTP 150 μg/Kg single i.v., vs control

Chain of HEK-Kv4.3/KChIP2 (Q9UK17 whole entry): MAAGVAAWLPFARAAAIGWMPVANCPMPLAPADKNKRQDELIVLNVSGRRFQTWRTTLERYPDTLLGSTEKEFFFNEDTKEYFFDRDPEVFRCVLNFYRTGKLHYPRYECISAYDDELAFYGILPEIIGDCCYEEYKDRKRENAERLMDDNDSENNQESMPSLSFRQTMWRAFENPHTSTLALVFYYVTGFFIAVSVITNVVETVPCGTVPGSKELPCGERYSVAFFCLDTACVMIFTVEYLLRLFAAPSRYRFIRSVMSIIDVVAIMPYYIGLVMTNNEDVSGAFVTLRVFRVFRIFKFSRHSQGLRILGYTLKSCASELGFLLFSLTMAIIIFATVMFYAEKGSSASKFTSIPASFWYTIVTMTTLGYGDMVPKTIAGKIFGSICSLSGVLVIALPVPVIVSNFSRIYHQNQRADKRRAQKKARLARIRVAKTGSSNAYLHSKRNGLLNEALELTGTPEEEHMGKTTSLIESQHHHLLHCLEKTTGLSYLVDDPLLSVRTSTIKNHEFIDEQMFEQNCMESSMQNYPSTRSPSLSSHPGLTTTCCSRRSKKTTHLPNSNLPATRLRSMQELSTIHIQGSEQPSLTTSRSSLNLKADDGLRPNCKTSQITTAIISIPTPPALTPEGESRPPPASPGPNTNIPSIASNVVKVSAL
Chain of HEK-Kv4.3/KChIP2 (Q9NS61 whole entry partner): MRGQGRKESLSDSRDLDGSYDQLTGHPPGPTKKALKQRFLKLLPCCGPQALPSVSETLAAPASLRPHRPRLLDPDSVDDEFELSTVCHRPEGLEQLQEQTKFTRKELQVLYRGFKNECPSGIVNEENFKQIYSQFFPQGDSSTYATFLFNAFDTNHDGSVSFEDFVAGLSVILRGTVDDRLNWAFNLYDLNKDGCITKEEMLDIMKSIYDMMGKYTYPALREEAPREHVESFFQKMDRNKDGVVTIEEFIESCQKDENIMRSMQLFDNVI

Sequence: APWHLSSQYSRT [CTP]
- Estimated IC50 (HEK-Kv4.3/KChIP2): N/C (Not calculable, inhibition >25% was not observed.)
- blocking or activation (KvLQT1/minK): no significant blocking or activation
- opening action (KvLQT1/minK): nor any significant opening action
- toxicity signals overall (CD1-wildtype mice; CTP 150 µg/Kg single dose, except borderline alkaline phosphatase increase in female mice): no significant toxicity signals
- body weight (CD1-wildtype mice; control vs injected mice of each sex, CTP 150 μg/Kg single i.v., two-week course): no significant difference
- mean alkaline phosphatase level (CD1-wildtype mice; female mice, any of the groups, upper limit of normal not crossed, CTP 150 μg/Kg single i.v.): ≤ 140 IU/L
- alkaline phosphatase recovery (CD1-wildtype mice; female mice, CTP 150 μg/Kg single i.v.): returning to baseline by Day 2
- platelet count (CD1-wildtype mice; [1]): decreased on Day 0; also recorded: significant decrease
- white blood cell count (CD1-wildtype mice; [1]): decreased on Day 0; also recorded: significant decrease
- bilirubin (CD1-wildtype mice; female mice, CTP 150 μg/Kg single i.v., only on Day 0, recovered by Day 1): significant decrease
- alanine aminotransferase (CD1-wildtype mice; [2]): no significant difference
- alkaline phosphatase change (CD1-wildtype mice; [2]): borderline increase in alkaline phosphatase levels in female mice on Days 0 and 1, with recovery to control levels by Day 2; also recorded: rise in alkaline phosphatase
- aspartate aminotransferase (CD1-wildtype mice; [2]): no significant difference
- blood urea nitrogen (CD1-wildtype mice; [2]): no significant difference
- creatinine (CD1-wildtype mice; [2]): no significant difference
- hemoglobin (CD1-wildtype mice; [2]): no significant difference
- alkaline phosphatase level, individual mouse (CD1-wildtype mice; day 0, first of two borderline elevated mice, CTP 150 μg/Kg single i.v.): 151 IU/L
- alkaline phosphatase level, individual mouse (CD1-wildtype mice; day 0, second of two borderline elevated mice, CTP 150 μg/Kg single i.v.): 166 IU/L
- calcium levels (CD1-wildtype mice; male mice, CTP 150 μg/Kg single i.v., normalizing at later time-points): increased marginally only on Day 0
- alanine aminotransferase (CD1-wildtype mice; [3]): no difference
- alkaline phosphatase (CD1-wildtype mice; [3]): no difference
- aspartate aminotransferase (CD1-wildtype mice; [3]): no difference
- blood urea nitrogen (CD1-wildtype mice; [3]): decrease; also recorded: significantly lower on Days 0–2
- creatinine (CD1-wildtype mice; [3]): decrease; also recorded: significantly lower on Days 0–2
- hemoglobin (CD1-wildtype mice; [3]): no difference
- phosphorous levels (CD1-wildtype mice; [3]): no difference
- platelet count (CD1-wildtype mice; [3]): no difference
- total bilirubin (CD1-wildtype mice; [3]): no difference
- white blood cell count (CD1-wildtype mice; [3]): no difference
- Estimated IC50 (CHO-KCNQ1/minK): N/C (Not calculable, inhibition >25% was not observed.)
- blocking or activation (NAV1.5; SAFETYscan ion channel assay): no significant blocking or activation
- IC50 (NAV1.5; blocker, FLIPR Tetra, read-out: RC50 (the source's name)): > 30 µM
